In patent publication US9328138B2 (priority 2011, dated 2016):
Where a name gives a salt, the structure may show the parent alone.

Experiments:
[1] = target: HCV NS3 protease genotype 3a (3A-1) (Hepatitis C virus genotype 3a, UniProt Q81258); experiment: HCV NS3 protease time-resolved fluorescence (TRF) assay, genotype 3a; format: biochemical; details: Ki 3a
How it was run: (§1)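 Pre-incubation of NS3/NS4A protease with inhibitor for 10 min in pH 7.5 HEPES buffer with 10 mM DTT; 25 nM TRF peptide substrate, hydrolysis 6 h at room temperature. Fluorescence read at ex 340/em 615 nm with 400 μs delay, enzyme level set for S/B 5-20; IC50 by four-parameter fit.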

[2] = target: T1, HCV genotype 1b (BK) NS3 modified enzyme with a R155K mutation (Hepatitis C virus genotype 1b, UniProt P26663, R1181K); experiment: HCV NS3 protease time-resolved fluorescence (TRF) assay, genotype 1b R155K; format: biochemical; details: Ki 1b R155K
T1 construct: HCV genotype 1b (BK) NS3 modified enzyme
How it was run: as §1

[3] = first of two values printed in the cell (not explained)
[4] = second of two values printed in the cell (not explained)
[5] = genotype 1b (BK) NS3 R155K, single value

| SMILES | Ki [1] | Ki [2, 3] | Ki [2, 4] | Ki [2, 5] |
| --- | --- | --- | --- | --- |
| C=C[C@@H]1C[C@]1(NC(=O)[C@@H]1C[C@@H]2CN1C(=O)[C@H](C1CCCCC1)NC(=O)O[C@@H]1C[C@H]1CCCCCc1c(nc3ccccc3c1OC1CC3COCC(C1)N3CCOC)O2)C(=O)NS(=O)(=O)C1(C)CC1 (stereo partly drawn) [Example 289, (1aR,5S,8S,10R,22aR)-5-cyclohexyl-N-[(1R,2S)-2-ethenyl-1-{[(1-methylcyclopropyl)sulfonyl]carbamoyl}cyclopropyl]-17-{[9-(2-methoxyethyl)-3-oxa-9-azabicyclo[3.3.1]non-7-yl]oxy}-3,6-dioxo-1,1a,3,4,5,6,9,10,18,19,20,21,22,22a-tetradecahydro-8H-7,10-methanocyclopropa[18,19][1,10,3,6]dioxadiazacyclononadecino[11,12-b]quinoline-8-carboxamide] | 3.27 nM | 0.03 nM | 0.197 nM | – |
| C=C[C@@H]1C[C@]1(NC(=O)[C@@H]1C[C@@H]2CN1C(=O)[C@H](C1CCCCC1)NC(=O)O[C@@H]1C[C@H]1CCCCCc1c(nc3ccccc3c1OC1CC3COCC(C1)N3CC)O2)C(=O)NS(=O)(=O)C1(C)CC1 (stereo partly drawn) [Example 290, 7-{[(1aR,5S,8S,10R,22aR)-5-cyclohexyl-8-{[(1R,2S)-2-ethenyl-1-{[(1-methylcyclopropyl)sulfonyl]carbamoyl}cyclopropyl]carbamoyl}-3,6-dioxo-1,1a,3,4,5,6,9,10,18,19,20,21,22,22a-tetradecahydro-8H-7,10-methanocyclopropa[18,19][1,10,3,6]dioxadiazacyclononadecino[11,12-b]quinolin-17-yl]oxy}-9-ethyl-3-oxa-9-azoniabicyclo[3.3.1]nonane formate] | 1.14 nM | 0.012 nM | 0.125 nM | – |
| C=C[C@@H]1C[C@]1(NC(=O)[C@@H]1C[C@@H]2CN1C(=O)[C@H](C1CCCCC1)NC(=O)O[C@@H]1C[C@H]1CCCCCc1c(nc3ccccc3c1OC1CCCN(C)C1)O2)C(=O)NS(=O)(=O)C1(C)CC1 (stereo partly drawn) [Example 291, 3-{[(1aR,5S,8S,10R,22aR)-5-cyclohexyl-8-{[(1R,2S)-2-ethenyl-1-{[(1-methylcyclopropyl)sulfonyl]carbamoyl}cyclopropyl]carbamoyl}-3,6-dioxo-1,1a,3,4,5,6,9,10,18,19,20,21,22,22a-tetradecahydro-8H-7,10-methanocyclopropa[18,19][1,10,3,6]dioxadiazacyclononadecino[11,12-b]quinolin-17-yl]oxy}-1-methylpiperidinium formate] | 0.774 nM | 0.01 nM | 0.085 nM | – |
| C=C[C@@H]1C[C@]1(NC(=O)[C@@H]1C[C@@H]2CN1C(=O)[C@H](C1CCCCC1)NC(=O)O[C@@H]1C[C@H]1CCCCCc1c(nc3ccccc3c1O[C@@H]1CCN(C(=O)OC(C)(C)C)C[C@@H]1F)O2)C(=O)NS(=O)(=O)C1(C)CC1 [Example 292, tert-butyl (3S,4R)-4-{[(1aR,5S,8S,10R,22aR)-5-cyclohexyl-8-{[(1R,2S)-2-ethenyl-1-{[(1-methylcyclopropyl)sulfonyl]carbamoyl}cyclopropyl]carbamoyl}-3,6-dioxo-1,1a,3,4,5,6,9,10,18,19,20,21,22,22a-tetradecahydro-8H-7,10-methanocyclopropa[18,19][1,10,3,6]dioxadiazacyclononadecino[11,12-b]quinolin-17-yl]oxy}-3-fluoropiperidine-1-carboxylate] | 49.4 nM | 0.12 nM | 0.733 nM | – |
| C=C[C@@H]1C[C@]1(NC(=O)[C@@H]1C[C@@H]2CN1C(=O)[C@H](C(C)(C)C)NC(=O)O[C@H]1C[C@@H]1CCCCCc1c(nc3ccncc3c1OC1CCN(C)CC1)O2)C(=O)NS(=O)(=O)C1(C)CC1 [Example 295, (1aS,5S,8S,10R,22aS)-5-tert-butyl-N-{(1R,2S)-2-ethenyl-1-[(1-methylcyclopropanesulfonamido)carbonyl]cyclopropyl}-17-[(1-methylpiperidin-4-yl)oxy]-3,6-dioxo-1,1a,3,4,5,6,9,10,18,19,20,21,22,22a-tetradecahydro-8H-7,10-methanocyclopropa[18,19][1,10,3,6]dioxadiazacyclononadecino[11,12-b][1,6]naphthyridine-8-carboxamide] | 1.07 nM | – | – | 0.082 nM |
| CC1(S(=O)(=O)NC(=O)[C@@]23C[C@H]2/C=C\CCCCC[C@@H]2NC(=O)O[C@@H]4C[C@H]4CCC/C=C/c4c(nc5ccccc5c4OCCN4CCCCC4)O[C@@H]4C[C@@H](C(=O)N3)N(C4)C2=O)CC1 [Example 296, (1aR,5S,11Z,12aS,13aR,16S,19R,27E,31aR)—N-[(1-methylcyclopropyl)sulfonyl]-3,15,33-trioxo-26-[2-(piperidin-1-yl)ethoxy]-1,1a,3,4,5,6,7,8,9,10,12a,13,15,16,18,19,29,30,31,31a-icosahydro-5,17:16,19-dimethanodicyclopropa[12,13:28,29][1,20,3,14,17]dioxatriazacyclononacosino[21,22-b]quinoline-13a(14H)-carboxamide] | 6 nM | – | – | 0.27 nM |
| CC1(S(=O)(=O)NC(=O)[C@@]23C[C@H]2/C=C\CCCCC[C@@H]2NC(=O)O[C@@H]4C[C@H]4CCC/C=C/c4c(nc5ccccc5c4OCCN4CCOCC4)O[C@@H]4C[C@@H](C(=O)N3)N(C4)C2=O)CC1 [Example 297, (1aR,5S,11Z,12aS,13aR,16S,19R,27E, 31aR)-N-[(1-methylcyclopropyl)sulfonyl]-26-[2-(morpholin-4-yl)ethoxy]-3,15,33-trioxo-1,1a,3,4,5,6,7,8,9,10,12a,13,15,16,18,19,29, 30,31,31a-icosahydro-5,17:16,19-dimethanodicyclopropa[12,13:28,29][1,20,3, 14,17]dioxatriazacyclononacosino[21,22-b]quinoline-13a(14H)-carboxamide] | 4.3 nM | – | – | 0.27 nM |
| CC1(S(=O)(=O)NC(=O)[C@@]23C[C@H]2/C=C\CCCCC[C@@H]2NC(=O)O[C@@H]4C[C@H]4CCC/C=C/c4c(nc5ccccc5c4OCCCN4CCOCC4)O[C@@H]4C[C@@H](C(=O)N3)N(C4)C2=O)CC1 [Example 298, (1aR,5S,11Z,12aS,13aR,16S,19R,27E, 31aR)-N-[(1-methylcyclopropyl)sulfonyl]-26-[3-(morpholin-4-yl)propoxy]-3,15,33-trioxo-1,1a,3,4,5,6,7,8,9,10,12a,13,15,16,18,19,29, 30,31,31a-icosahydro-5,17:16,19-dimethanodicyclopropa[12,13:28,29][1,20,3,14,17]dioxatriazacyclononacosino[21,22-b]quinoline-13a(14H)-carboxamide] | 4 nM | – | – | 0.49 nM |
| CC1(S(=O)(=O)NC(=O)[C@@]23C[C@H]2/C=C\CCCCC[C@@H]2NC(=O)O[C@@H]4C[C@H]4CCC/C=C/c4c(nc5ccccc5c4OCCN4CCCC4)O[C@@H]4C[C@@H](C(=O)N3)N(C4)C2=O)CC1 [Example 299, (1aR,5S,11Z,12aS,13aR,16S,19R,27E, 31aR)-N-[(1-methylcyclopropyl)sulfonyl]-3,15,33-trioxo-26-[2-(pyrrolidin-1-yl)ethoxy]-1,1a,3,4,5,6,7,8,9,10,12a,13,15,16,18,19,29, 30,31,31a-icosahydro-5,17:16,19-dimethanodicyclopropa[12,13:28,29][1,20,3, 14,17]dioxatriazacyclononacosino[21,22-b]quinoline-13a(14H)-carboxamide] | 3.8 nM | – | – | 0.19 nM |
| COc1c2c(nc3ccccc13)O[C@@H]1C[C@H]3C(=O)N[C@]4(C(=O)NS(=O)(=O)C5(C)CC5)C[C@H]4/C=C\CCCCC[C@H](NC(=O)O[C@@H]4C[C@H]4CCC/C=C/2)C(=O)N3C1 [Example 300, (1aR,5S,11Z,12aS,13aR,16S,19R,27E,31aR)-26-methoxy-N-[(1-methylcyclopropyl)sulfonyl]-3,15,33-trioxo-1,1a,3,4,5,6,7,8,9,10,12a,13,15,16,18,19,29,30,31,31a-icosahydro-5,17:16,19-dimethanodicyclopropa[12,13:28,29][1,20,3,14,17]dioxatriazacyclononacosino[21,22-b]quinoline-13a(14H)-carboxamide] | 7.1 nM | – | – | 0.23 nM |
| CC1(S(=O)(=O)NC(=O)[C@@]23C[C@H]2/C=C\CCCCC[C@@H]2NC(=O)O[C@@H]4C[C@H]4CCCCCc4c(nc5ccccc5c4OCCN4CCOCC4)O[C@@H]4C[C@@H](C(=O)N3)N(C4)C2=O)CC1 [Example 301, (1aR,5S,11Z,12aS,13aR,16S,19R,31aR)—N-[(1-methylcyclopropyl)sulfonyl]-26-[2-(morpholin-4-yl)ethoxy]-3,15,33-trioxo-1,1a,3,4,5,6,7,8,9,10,12a,13,15,16,18,19,27,28,29,30,31,31a-docosahydro-5,17:16,19-dimethanodicyclopropa[12,13:28,29][1,20,3,14,17]dioxatriazacyclononacosino[21,22-b]quinoline-13a(14H)-carboxamide] | 5.9 nM | – | – | 0.35 nM |
| CC1(S(=O)(=O)NC(=O)[C@@]23C[C@H]2/C=C\CCCCC[C@@H]2NC(=O)O[C@@H]4C[C@H]4CCC/C=C/c4c(nc5ccccc5c4OCCCN4CCCCC4)O[C@@H]4C[C@@H](C(=O)N3)N(C4)C2=O)CC1 [Example 302, (1aR,5S,11Z,12aS,13aR,16S,19R,27E,31aR)—N-[(1-methylcyclopropyl)sulfonyl]-3,15,33-trioxo-26-[3-(piperidin-1-yl)propoxy]-1,1a,3,4,5,6,7,8,9,10,12a,13,15,16,18,19,29,30,31,31a-icosahydro-5,17:16,19-dimethanodicyclopropa[12,13:28,29][1,20,3,14,17]dioxatriazacyclononacosino[21,22-b]quinoline-13a(14H)-carboxamide] | 2 nM | – | – | 0.16 nM |
